The source of these data is ChEMBL document CHEMBL1221241, “Discovery of tetrahydroisoquinoline (THIQ) derivatives as potent and orally bioavailable LFA-1/ICAM-1 antagonists” (Bioorg Med Chem Lett, 2010).

Broadly, the IC50 is the concentration needed to halve the response being measured. Broadly, the clearance is a measure of how efficiently the substance is removed, as volume per time. High values mean a high capacity for elimination, low ones a low capacity for elimination. In general, half-life refers to the time in which the quantity being followed falls by half. Low values mean fast loss, high ones slow loss. In general, AUC refers to concentration integrated over time. A low value points to less exposure. For orientation: ED50 means the midpoint of the dose-response relation. A lower ED50 goes with an effect at a small dose. The term Papp A→B denotes the apparent permeability from the apical to the basolateral side of a cell layer. By Papp B→A is commonly meant the apparent permeability from the basolateral to the apical side of a cell layer. In general, Tmax refers to the time from dosing to the highest level. The Cmax is the peak of the concentration-time curve. The AUC(0-t) is the area under the concentration-time curve up to a stated or last time point. Higher therefore signals more exposure. In general, bioavailability refers to the share of a dose that reaches the circulation, judged against a reference dose that is usually intravenous. A lower bioavailability goes with poor availability.

Data set [1] has as its target Intercellular adhesion molecule (ICAM-1), Integrin alpha-L/beta-2 (Homo sapiens, UniProt P05107+P05362+P20701). In words: Inhibition of LFA1/ICAM1 interaction in human Hut-78 cells by cell migration assay. The class given is cell-based.
Data set [2] is described as follows: Clearance in Sprague-Dawley rat at 5 mg/kg, iv. Format: ADME, organism-based. Further details: dose 5 mg/kg, route intravenous. The conditions noted are these: in vivo.
Data set [3] can be described thus: Half life in Sprague-Dawley rat at 5 mg/kg, iv. The class given is ADME, organism-based. Further details: dose 5 mg/kg, route intravenous. The conditions noted are these: in vivo.
Data set [4] in a line: AUC in Sprague-Dawley rat at 5 mg/kg, iv. The class given is ADME, organism-based. Further details: dose 5 mg/kg, route intravenous. Conditions: plasma.
In data set [5] the test system is Mus musculus. In words: Reduction of neutrophil migration in iv dosed thioglycollate-induced C57BL/6 mouse peritonitis model administered 15 mins before thioglycollate challenge measured after 4 hrs. The class given is functional.
Data set [6] can be described thus: Apparent permeability of the compound from apical to basolateral side in MDCK cells. Conditions: dog. Format: ADME, cell-based, Canis lupus familiaris.
Data set [7] in a line: Apparent permeability of the compound from basolateral to apical side in MDCK cells. The class given is ADME, cell-based, Canis lupus familiaris. Conditions: dog.
A short description of data set [8]: Tmax in C57BL/6 mouse at 100 mg/kg, po. Format: ADME, organism-based. Further details: dose 100 mg/kg, route oral. The conditions noted are these: in vivo.
A short description of data set [9]: Cmax in Sprague-Dawley rat at 20 mg/kg, po. On the set-up: dose 20 mg/kg, route oral. Format: ADME, organism-based. Conditions: in vivo.
Data set [10] can be described thus: AUClast in Sprague-Dawley rat at 20 mg/kg, po. Further details: time 0 - last, dose 20 mg/kg, route oral. The class given is ADME, organism-based. Conditions: plasma.
The nature of data set [11]: Cmax in C57BL/6 mouse at 100 mg/kg, po. On the set-up: dose 100 mg/kg, route oral. Format: ADME, organism-based. The conditions noted are these: in vivo.
Data set [12] can be described thus: Oral bioavailability in Sprague-Dawley rat at 20 mg/kg. Conditions: in vivo. The class given is ADME, organism-based.
Data set [13] in a line: Tmax in C57BL/6 mouse at 20 mg/kg, po. Conditions: in vivo. The class given is ADME, organism-based. On the set-up: dose 20 mg/kg, route oral.
Data set [14] in a line: Tmax in Sprague-Dawley rat at 20 mg/kg, po. Format: ADME, organism-based. Further details: dose 20 mg/kg, route oral. The conditions noted are these: in vivo.
A short description of data set [15]: AUClast in C57BL/6 mouse at 100 mg/kg, po. The class given is ADME, organism-based. Further details: time 0 - last, dose 100 mg/kg, route oral. The conditions noted are these: plasma.
Data set [16] can be described thus: AUClast in C57BL/6 mouse at 20 mg/kg, po. Format: ADME, organism-based. On the set-up: time 0 - last, dose 20 mg/kg, route oral. The conditions noted are these: plasma.
Data set [17] is described as follows: Oral bioavailability in C57BL/6 mouse at 20 mg/kg. The class given is ADME, organism-based. Conditions: in vivo.
Data set [18] in a line: Cmax in C57BL/6 mouse at 20 mg/kg, po. Format: ADME, organism-based. On the set-up: dose 20 mg/kg, route oral. Conditions: in vivo.
Data set [19] concerns Mus musculus. In words: Reduction of neutrophil migration in po dosed thioglycollate-induced C57BL/6 mouse peritonitis model administered 15 mins before thioglycollate challenge measured after 4 hrs. The class given is functional.
Data set [20] is described as follows: Oral bioavailability in Sprague-Dawley rat at 100 mg/kg. Format: ADME, organism-based. Conditions: in vivo.

Chain of Intercellular adhesion molecule (ICAM-1), Integrin alpha-L/beta-2 (P20701 whole entry): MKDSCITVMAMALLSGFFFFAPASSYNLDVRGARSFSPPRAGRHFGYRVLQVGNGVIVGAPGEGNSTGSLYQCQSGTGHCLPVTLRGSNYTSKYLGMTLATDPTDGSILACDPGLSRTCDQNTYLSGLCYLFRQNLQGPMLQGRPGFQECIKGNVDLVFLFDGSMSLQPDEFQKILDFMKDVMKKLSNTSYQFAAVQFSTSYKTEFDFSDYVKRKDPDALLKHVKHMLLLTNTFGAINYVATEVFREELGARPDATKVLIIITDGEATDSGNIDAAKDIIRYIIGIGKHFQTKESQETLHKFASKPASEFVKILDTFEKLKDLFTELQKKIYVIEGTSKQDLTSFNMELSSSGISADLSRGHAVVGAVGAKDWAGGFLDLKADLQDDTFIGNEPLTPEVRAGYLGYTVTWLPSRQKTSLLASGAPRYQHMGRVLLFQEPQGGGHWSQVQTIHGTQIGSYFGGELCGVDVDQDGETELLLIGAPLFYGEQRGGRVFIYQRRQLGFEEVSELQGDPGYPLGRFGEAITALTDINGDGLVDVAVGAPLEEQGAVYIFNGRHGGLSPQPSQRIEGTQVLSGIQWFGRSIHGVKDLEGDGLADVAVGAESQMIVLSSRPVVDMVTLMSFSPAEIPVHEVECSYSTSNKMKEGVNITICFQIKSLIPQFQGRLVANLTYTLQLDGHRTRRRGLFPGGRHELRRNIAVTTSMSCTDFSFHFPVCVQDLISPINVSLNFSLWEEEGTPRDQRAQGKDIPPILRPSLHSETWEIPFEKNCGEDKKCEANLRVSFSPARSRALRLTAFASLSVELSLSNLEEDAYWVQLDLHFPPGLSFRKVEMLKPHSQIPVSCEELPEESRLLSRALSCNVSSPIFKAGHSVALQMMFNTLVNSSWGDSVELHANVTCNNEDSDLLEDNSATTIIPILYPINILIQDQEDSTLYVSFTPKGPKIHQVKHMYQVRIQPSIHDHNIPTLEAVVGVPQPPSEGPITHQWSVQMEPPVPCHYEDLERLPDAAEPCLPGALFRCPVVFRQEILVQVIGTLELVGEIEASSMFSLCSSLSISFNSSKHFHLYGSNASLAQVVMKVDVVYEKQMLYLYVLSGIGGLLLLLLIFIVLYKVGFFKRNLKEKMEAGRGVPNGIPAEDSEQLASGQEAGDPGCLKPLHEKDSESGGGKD
Chain of Intercellular adhesion molecule (ICAM-1), Integrin alpha-L/beta-2 (P05362 whole entry): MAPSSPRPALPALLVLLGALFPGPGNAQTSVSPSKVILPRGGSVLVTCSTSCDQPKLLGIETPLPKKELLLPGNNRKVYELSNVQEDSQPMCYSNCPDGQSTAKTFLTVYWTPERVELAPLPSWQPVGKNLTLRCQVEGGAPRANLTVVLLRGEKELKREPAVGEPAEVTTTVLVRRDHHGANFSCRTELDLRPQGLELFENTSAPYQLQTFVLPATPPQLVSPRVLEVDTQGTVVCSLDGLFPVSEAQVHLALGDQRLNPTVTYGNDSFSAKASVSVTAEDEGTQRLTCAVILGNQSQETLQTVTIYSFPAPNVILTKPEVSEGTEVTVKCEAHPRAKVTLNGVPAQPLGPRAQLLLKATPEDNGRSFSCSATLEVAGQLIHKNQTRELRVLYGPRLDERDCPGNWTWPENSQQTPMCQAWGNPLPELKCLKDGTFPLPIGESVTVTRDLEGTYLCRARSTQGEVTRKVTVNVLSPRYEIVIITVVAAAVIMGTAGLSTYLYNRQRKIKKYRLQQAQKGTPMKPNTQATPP
Chain of Intercellular adhesion molecule (ICAM-1), Integrin alpha-L/beta-2 (P05107 whole entry): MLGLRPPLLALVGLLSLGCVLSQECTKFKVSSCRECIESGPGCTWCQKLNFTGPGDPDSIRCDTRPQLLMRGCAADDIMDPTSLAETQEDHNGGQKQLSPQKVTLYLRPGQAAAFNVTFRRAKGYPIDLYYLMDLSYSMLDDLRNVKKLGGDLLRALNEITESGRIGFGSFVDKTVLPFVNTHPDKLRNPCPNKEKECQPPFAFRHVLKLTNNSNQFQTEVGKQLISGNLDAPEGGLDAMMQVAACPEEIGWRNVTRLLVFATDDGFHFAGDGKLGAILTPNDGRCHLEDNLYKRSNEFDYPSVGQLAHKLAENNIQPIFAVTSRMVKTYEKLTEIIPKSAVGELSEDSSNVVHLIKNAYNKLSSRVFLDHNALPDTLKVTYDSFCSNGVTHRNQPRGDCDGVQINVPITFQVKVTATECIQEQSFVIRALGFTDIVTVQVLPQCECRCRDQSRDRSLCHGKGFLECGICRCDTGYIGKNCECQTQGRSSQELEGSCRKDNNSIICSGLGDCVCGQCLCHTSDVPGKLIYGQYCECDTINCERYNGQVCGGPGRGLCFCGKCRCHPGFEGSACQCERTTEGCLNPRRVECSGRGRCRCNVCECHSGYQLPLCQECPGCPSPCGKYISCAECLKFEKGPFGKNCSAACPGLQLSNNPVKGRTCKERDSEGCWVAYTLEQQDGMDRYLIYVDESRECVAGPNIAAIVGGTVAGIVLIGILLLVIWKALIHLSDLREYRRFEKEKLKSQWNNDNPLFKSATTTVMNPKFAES

In the case of `O=C(NC[C@H](NC(=O)c1c(Cl)cc2c(c1Cl)CCN(C(=O)/C=C/c1ccco1)C2)C(=O)O)c1cccs1`, the IC50 in [1] came to 25 nM.

`O=C(NC[C@H](NC(=O)c1c(Cl)cc2c(c1Cl)CCN(C(=O)c1cccc(Cl)c1)C2)C(=O)O)c1cccs1` yielded an IC50 in data set [1] of 66 nM. In data set [2], this molecule registered a clearance of more than 60 mL/min/kg. For the same molecule, in [3], the half-life was 1.1 h. In addition, in [4], the AUC was 120 ng·h/mL.

Regarding `O=C(NC[C@H](NC(=O)c1c(Cl)cc2c(c1Cl)CCN(C(=O)c1ccc(Cl)cc1)C2)C(=O)O)c1ccccc1`, the IC50 in data set [1] was determined as 29 nM. In data set [2], this molecule returned a clearance of more than 60 mL/min/kg. Also, in [3], the half-life is 0.7 h. Also, the AUC in data set [4] came to 487 ng·h/mL.

Consider `O=C(N[C@@H](Cc1cccc(O)c1)C(=O)O)c1c(Cl)cc2c(c1Cl)CCN(C(=O)c1ccc(Cl)cc1)C2`, for which, in data set [1], the IC50 is more than 1000 nM.

In turn, `O=C(NC[C@H](NC(=O)c1c(Cl)cc2c(c1Cl)CCN(C(=O)c1ccc3c(c1)OCC3)C2)C(=O)O)c1cccs1` yielded an IC50 in [1] of 13 nM. In [2], this molecule registered a clearance of 19 mL/min/kg. The half-life in [3] was 1.1 h. The molecule also displayed an AUC in [4] of 4870 ng·h/mL.

For the molecule `O=C(NC[C@H](NC(=O)c1c(Cl)cc2c(c1Cl)CCN(C(=O)c1ccc3ccoc3c1)C2)C(=O)O)c1cccs1`, in data set [1], the IC50 is 9 nM. The same molecule registered a clearance in [2] of 3.2 mL/min/kg. The half-life in [3] was 3 h. Further, in data set [4], the AUC amounted to 5500 ng·h/mL. Moreover, the Activity result in the data set with Mus musculus [5] was “Dose-dependent effect”. In the data set with Mus musculus [5] (C57BL/6, iv), this molecule yielded an ED50 of 0.038 mg/kg. Besides, the Papp A→B in [6] was found to be 0.34 ×10⁻⁶ cm/s. Besides, in data set [7], the Papp B→A worked out at 0.3 ×10⁻⁶ cm/s.

`Cc1cccc(C(=O)N2CCc3c(cc(Cl)c(C(=O)N[C@@H](CNC(=O)c4cccs4)C(=O)O)c3Cl)C2)c1` showed a 50% inhibitory concentration (IC50) in data set [1] of 90 nM.

In [1], `O=C(NC[C@H](NC(=O)c1c(Cl)cc2c(c1Cl)CCN(C(=O)c1ccc(Cl)cc1)C2)C(=O)O)c1ccco1` had a half-maximal inhibitory concentration (IC50) of 51 nM.

In data set [1], `O=C(N[C@@H](Cc1c[nH]c2ccccc12)C(=O)O)c1c(Cl)cc2c(c1Cl)CCN(C(=O)c1ccc(Cl)cc1)C2` showed an IC50 of 810 nM.

For `O=C(NC[C@H](NC(=O)c1c(Cl)cc2c(c1Cl)CCN(C(=O)c1ccccc1)C2)C(=O)O)c1cccs1`, the IC50 in data set [1] is 79 nM.

With `O=C(NC[C@H](NC(=O)c1c(Cl)cc2c(c1Cl)CCN(C(=O)C1CCCCC1)C2)C(=O)O)c1cccs1`, the IC50 in data set [1] is more than 1000 nM.

Consider `CCOC(=O)[C@H](CNC(=O)c1cccs1)NC(=O)c1c(Cl)cc2c(c1Cl)CCN(C(=O)c1ccc3ccoc3c1)C2`, for which the Tmax in data set [8] is 1 h; in data set [13], 0.8 h; in data set [14], 0.8 h. In addition, the Cmax in data set [9] is 3400 ng/mL; in data set [11], 8460 ng/mL; in data set [18], 2120 ng/mL. For the same molecule, the AUC(0-t) in data set [10] was 13900 ng·h/mL; in data set [15], 31900 ng·h/mL; in data set [16], 5540 ng·h/mL. This molecule returned a clearance in data set [2] of 5 mL/min/kg. The figures for the bioavailability in data set [12], in [17] and in data set [20] were 18%, 27% and 31%, respectively. Further, the half-life in data set [3] is 2.8 h. Further, in [4], the exposure (AUC) came out at 16800 ng·h/mL. For the same molecule, in the data set with Mus musculus [19], the Activity result is “Dose-dependent effect”. In the data set with Mus musculus [19] (C57BL/6, po), this molecule displayed an ED50 of 6.4 mg/kg. Besides, in [6], the Papp A→B came out at 8.5 ×10⁻⁶ cm/s. Also, the Papp B→A in [7] was found to be 10 ×10⁻⁶ cm/s.

The molecule `CC(=O)N1CCc2c(cc(Cl)c(C(=O)N[C@@H](CNC(=O)c3cccs3)C(=O)O)c2Cl)C1` came in with an IC50 in [1] of more than 1000 nM.

As to `Cc1ccc(C(=O)N2CCc3c(cc(Cl)c(C(=O)N[C@@H](CNC(=O)c4cccs4)C(=O)O)c3Cl)C2)cc1`, in data set [1], the IC50 is 10 nM.

For the molecule `Cc1ccccc1C(=O)N1CCc2c(cc(Cl)c(C(=O)N[C@@H](CNC(=O)c3cccs3)C(=O)O)c2Cl)C1`, the IC50 in [1] worked out at 460 nM.

Consider `CC(=O)NC[C@H](NC(=O)c1c(Cl)cc2c(c1Cl)CCN(C(=O)c1ccc(Cl)cc1)C2)C(=O)O`, for which inhibition in [1] was half-maximal at 620 nM (IC50).

In data set [1], `O=C(N[C@@H](CNC(=O)C1CCCCC1)C(=O)O)c1c(Cl)cc2c(c1Cl)CCN(C(=O)c1ccc(Cl)cc1)C2` yielded an IC50 of 540 nM.

Consider `O=C(NC[C@H](NC(=O)c1c(Cl)cc2c(c1Cl)CCN(C(=O)c1ccc(Cl)cc1)C2)C(=O)O)c1cccs1`, for which it took 22 nM to reach half-maximal inhibition in data set [1] (IC50). The molecule further yielded a clearance in data set [2] of 31 mL/min/kg. Also, the half-life in data set [3] is 1.4 h. This molecule also returned an AUC in data set [4] of 580 ng·h/mL.

With `O=C(NC[C@H](NC(=O)c1c(Cl)cc2c(c1Cl)CCN(C(=O)c1cc3ccccc3o1)C2)C(=O)O)c1cccs1`, in [1], the IC50 was found to be 5 nM. In data set [2], the clearance is more than 60 mL/min/kg. In data set [3], this molecule had a half-life of 1.5 h. In data set [4], this molecule gave an AUC of 1260 ng·h/mL.

As to `NC[C@H](NC(=O)c1c(Cl)cc2c(c1Cl)CCN(C(=O)c1ccc(Cl)cc1)C2)C(=O)O`, the IC50 in data set [1] is more than 1000 nM.
